Legend:
[1] = Water activity aw of capsule fill (Pawkit water activity meter); type: physicochemical; settings: fill emptied from gelatine capsules size 00, 24 h after capsule preparation
Excerpt: Water activity aw is a measure of unbound free water in a system that is available to support chemical (or biological) reactions. It is defined as the vapour pressure of water divided by that of pure water at the same temperature. When a composition is in moisture equilibrium with its environment, its water activity is quantitatively equal to the relative humidity in head space of a container containing the composition, divided by 100. In particular during prolonged periods of storage, an excess of free water will migrate into the capsule shell and soften and eventually liquefy the capsule material. There are several factors that control water activity in a system. Dissolved species, e.g. salts, or sugars, interact with water through dipole-dipole, ionic, and hydrogen bonds. […] Water activity can be measured with commercially available equipment, such as the Pawkit water activity meter available from Decagon Devices, Inc. For the purposes herein, the water activity aw is suitably measured at a temperature of 25° C. […]
Twenty-four hours after the capsule preparation, the initial values of water activity and mechanical strength of the capsule shell were measured.
Capsules were stored for three months at 25° C., 60% relative humidity and 40° C., 75% relative humidity, respectively. Then, water activity and mechanical strength of the capsule shell were measured. […]

[2] = Miscibility with water; type: physicochemical

aw (water activity), Initial [1]: 0.12
Miscibility with water [2]: miscible with water in any ratio
SMILES: CC(CCN1CCCC1=O)N1CCCC1=O (centres unmarked) [1,3-bis-(pyrrolidon-1-yl)-butane]
